Key:
[1] = Gel formation in water: phase transition temperature (Tgel) from gel to isotropic solution; type: physicochemical; settings: for Übergangstemperatur: 0.1 Gew.%, gel up to this temperature, liquid above
Procedure: Tabelle 1: Phasenumwandlungstemperaturen (Tgel) vom Gel zur isotropen Lösung für unterschiedliche Konzentrationen an Lipid (Abweichung ± 0.5 °C). Die Verbindung bildet ein stabiles Gel und oberhalb von Tgel eine klare Lösung. Tgel ist definiert als die Temperatur bei der das Gel sich beginnt aufzulösen. Die Temperaturspanne des Übergangs beträgt im Normalfall 2 bis 5 °C.

[2] = Gel formation in dimethyl sulfoxide (DMSO) / water mixtures; type: physicochemical; set-up: key: G=Gel; Gp = Teilweise geliert; I = Isotrope Lösung; S = Fest beim Abkühlen (bedingt durch gefrorenes Lösungsmittel); settings: 0.1 Gew.%
Procedure: Tabelle 2: Phasenumwandlungstemperaturen (Tgel) vom Gel zur isotropen Lösung für unterschiedliche Lösungsmittelzusammensetzung (Dimethylsulfoxid, DMSO und Wasser, H2O) bei gleichbleibender Lipidkonzentration (0.1 Gew.%) (Abweichung ± 0.5 °C). Die Verbindung formt klare Gele oder geliert nur teilweise, oberhalb der Übergangstemperatur bildet sie eine klare Lösung. Tgel ist definiert als die Temperatur bei der das Gel sich beginnt aufzulösen. Die Temperaturspanne des Übergangs beträgt im Normalfall 2 bis 5 °C.

[3] = Foaming capacity and foam stability of aqueous solutions in 100 mL measuring cylinders; type: physicochemical; settings: 50°C; immediate volume and 30 min. volume
Procedure: Messungen werden in 100 mL Meßzylindern durchgeführt. Vor Benutzung wird der Meßzylinder mit konzentrierter Nitriersäure gefüllt und 24 Stunden gelagert, danach mit bidestilliertem Wasser für weitere 24 Stunden. Lösungen werden durch Einwaage des Lipids und Zugabe von bidestilliertem Wasser bis zu einem Gesamtgewicht von 10 g (ca. 10 mL) hergestellt. Lösungen der jeweils niedrigeren Konzentration werden durch Verdünnung der ersten hergestellt. Vor der Messung wird der Meßzylinder bei der gewünschten Temperatur gelagert. Zur Schaumbildung wird der Meßzylinder 20 mal innerhalb von 30 Sekunden umgeschwenkt. Die Messung wird bis zu einer Abweichung von nicht mehr als 5 % wiederholt. Schaumvolumina werden direkt nach dem Schwenken des Zylinders (Schäumungsvermögen) und nach 30 Minuten (Schaumstabilität) bestimmt. '

[4] = Foam image and size distribution of the gas bubbles; type: physicochemical; settings: 1 Gew.% in Wasser
Procedure: Schaumbild und Größenverteilung der Gasbläschen nach 0 min. (Abb. 2 und 3) und nach 10 min. (Abb. 4 und 5) von Lac-EG-C12 in einer Gesamtkonzentration von 1 Gew.%. in Wasser. Man erkennt, daß der Schaum zu Beginn fast ausschließlich aus Bläschen mit einer Porengröße von unter 10000 µm^2 besteht. Nach 10 min. wird die Größenverteilung etwas flacher, wobei immer noch rund ein Viertel der Bläschen eine Größe von unter 10000 µm^2 aufweist.

[5] = Foam behaviour on hair / in the hand; settings: 1 Gew% in Wasser, with hair strands, rubbed in the hand; single component
Excerpt: Hier zeigte sich erstaunlicherweise das die erfindungsgemäßen Verbindungen eine vergleichbare Schaumbildung auf der Haut oder dem Haar wie z.B. Laurylethersulfat zeigen, jedoch in deutlich niedrigeren Einsatzkonzentrationen. Aus den Daten für Lac-EG-C12 (Tab. 10) war nicht unbedingt zu erwarten, dass es sich in Wasser beim Verreiben des Tensids in der Hand um einen guten Schaumbildner handelt. Auch in Gegenwart von Haaren wird beim Verreiben des Tensids eine Schaumbildung beobachtet. Dazu wurde 1 Gew% der erfindungsgemäßen Substanz in Wasser in Gegenwart von Haarsträhnen gelöst und in der Hand verrieben. Der Schaum ist wesentlich feinporiger als vergleichbare Schäume von Laurylethersulfat. […] Lac-Laureth-3.

[6] = Gel formation in water: phase transition temperature (Tgel) from gel to isotropic solution; type: physicochemical

CCCCCCCCCCCCOCCO[C@@H]1O[C@H](CO)[C@@H](O[C@@H]2O[C@H](CO)[C@H](O)[C@H](O)[C@H]2O)[C@H](O)[C@H]1O [Lac-EG-C12, (2'-Dodecyloxyethyl) 4-O-(β-D-galactopyranosyl)-β-D-glucopyranosid]
Tgel ([1]; 0.03 Gew.% (0.60 mM) in water): 10 °C | Tgel ([1]; 0.04 Gew.% (0.72 mM) in water): 21 °C | Tgel ([1]; 0.05 Gew.% (0.90 mM) in water): 30 °C | Tgel ([1]; 0.06 Gew.% (1.03 mM) in water): 35 °C | Tgel ([1]; 0.07 Gew.% (1.20 mM) in water): 38 °C | Tgel ([1]; 0.08 Gew.% (1.44 mM) in water): 40 °C | Tgel ([1]; 0.1 Gew.% (1.80 mM) in water): 43 °C | Übergangstemperatur [1]: 43 °C | Tgel ([1]; 0.13 Gew.% (2.41 mM) in water): 45 °C | Tgel ([1]; 0.2 Gew.% (3.61 mM) in water): 46 °C | Tgel ([1]; 0.5 Gew.% (9.02 mM) in water): 48 °C | Tgel ([1]; 1 Gew.% (18.04 mM) in water): 50 °C | Tgel ([1]; 5 Gew.% (90.20 mM) in water): 51 °C | Tgel ([1]; 10 Gew.% (180.40 mM) in water): 51 °C | Gelbildungsverhalten ([2]; H2O /DMSO 1:9, 4 °C): I | Gelbildungsverhalten ([2]; H2O /DMSO 1:9, 20 °C): I | Gelbildungsverhalten ([2]; H2O /DMSO 1:9, -27 °C): S | Gelbildungsverhalten ([2]; H2O /DMSO 2:8, 4 °C): I | Gelbildungsverhalten ([2]; H2O /DMSO 2:8, 20 °C): I | Gelbildungsverhalten ([2]; H2O /DMSO 2:8, -27 °C): S | Gelbildungsverhalten ([2]; H2O /DMSO 3:7, 4 °C): Gp | Gelbildungsverhalten ([2]; H2O /DMSO 3:7, 20 °C): I | Gelbildungsverhalten ([2]; H2O /DMSO 3:7, -27 °C): S | Gelbildungsverhalten ([2]; H2O /DMSO 4:6, 4 °C): G | Gelbildungsverhalten ([2]; H2O /DMSO 4:6, 20 °C): G | Gelbildungsverhalten ([2]; H2O /DMSO 4:6, 39 °C): Gp | Gelbildungsverhalten ([2]; H2O /DMSO 4:6, 50 °C): I | Gelbildungsverhalten ([2]; H2O /DMSO 4:6, -27 °C): S | Gelbildungsverhalten ([2]; H2O /DMSO 5:5, 4 °C): G | Gelbildungsverhalten ([2]; H2O /DMSO 5:5, 20 °C): G | Gelbildungsverhalten ([2]; H2O /DMSO 5:5, 39 °C): G | Gelbildungsverhalten ([2]; H2O /DMSO 5:5, 50 °C): I | Gelbildungsverhalten ([2]; H2O /DMSO 5:5, -27 °C): G | Gelbildungsverhalten ([2]; H2O /DMSO 6:4, 4 °C): G | Gelbildungsverhalten ([2]; H2O /DMSO 6:4, 20 °C): G | Gelbildungsverhalten ([2]; H2O /DMSO 6:4, 39 °C): G | Gelbildungsverhalten ([2]; H2O /DMSO 6:4, 50 °C): I | Gelbildungsverhalten ([2]; H2O /DMSO 6:4, -27 °C): S | Gelbildungsverhalten ([2]; H2O /DMSO 7:3, 4 °C): G | Gelbildungsverhalten ([2]; H2O /DMSO 7:3, 20 °C): G | Gelbildungsverhalten ([2]; H2O /DMSO 7:3, 39 °C): G | Gelbildungsverhalten ([2]; H2O /DMSO 7:3, 50 °C): I | Gelbildungsverhalten ([2]; H2O /DMSO 7:3, -27 °C): S | Gelbildungsverhalten ([2]; H2O /DMSO 8:2, 4 °C): G | Gelbildungsverhalten ([2]; H2O /DMSO 8:2, 20 °C): G | Gelbildungsverhalten ([2]; H2O /DMSO 8:2, 39 °C): G | Gelbildungsverhalten ([2]; H2O /DMSO 8:2, 50 °C): I | Gelbildungsverhalten ([2]; H2O /DMSO 8:2, -27 °C): S | Gelbildungsverhalten ([2]; H2O /DMSO 9:1, 4 °C): G | Gelbildungsverhalten ([2]; H2O /DMSO 9:1, 20 °C): G | Gelbildungsverhalten ([2]; H2O /DMSO 9:1, 39 °C): G | Gelbildungsverhalten ([2]; H2O /DMSO 9:1, 50 °C): I | Gelbildungsverhalten ([2]; H2O /DMSO 9:1, -27 °C): S | Schaumbildner (comparison with SLES) [3]: wesentlich bessere Schaumbildner als Natriumlauryethersulfat (SLES) | Porengröße der Bläschen ([4]; 0 min., almost all bubbles): < 10000 µm^2 | Anteil der Bläschen mit einer Größe von unter 10000 µm^2 ([4]; nach 10 min.): ein Viertel | Schaumbildung auf Haar / in der Hand [5]: bester Schaumbildner | Gelbildung ([6]; 11 Gew.% Laurylethersulfat to 4 Gew.% of the β-anomer): Gelbildung aber wieder einsetzt | Gelbildung ([6]; mixture of 13 Gew% Laurylethersulfat with 2 Gew.% of the β-anomer): kein Gel mehr bildet | Anteil an α-Anomer, ab dem die Gelbildung durch das β-Anomer aufgehoben wird ([6]; mixture of α- and β-anomer): > 80 Gew.%

CCCCCCCCCCCCOC(C)CO[C@@H]1O[C@H](CO)[C@@H](O[C@@H]2O[C@H](CO)[C@H](O)[C@H](O)[C@H]2O)[C@H](O)[C@H]1O (stereo partly drawn) [Lac-PG-C12, (2'-Dodecyloxypropyl) 4-0-(β-D-galactopyranosyl)-β-D-glucopyranosid]
Übergangstemperatur [1]: 41 °C

CCCCCCCCCCCCOCCO[C@H]1O[C@H](CO)[C@@H](O[C@@H]2O[C@H](CO)[C@H](O)[C@H](O)[C@H]2O)[C@H](O)[C@H]1O [Lac-α-EG-C12, (2'-Dodecyloxyethyl) 4-O-(β-D-galactopyranosyl)-α-D-glucopyranosid]
Gelbildung ([1]; in water): kein Gel bildet

CCCCCCCCCCCCOCCO[C@@H]1O[C@H](CO)[C@@H](O[C@H]2O[C@H](CO)[C@@H](O)[C@H](O)[C@H]2O)[C@H](O)[C@H]1O [Mal-EG-C12, (2'-Dodecyloxyethyl) 4-O-(α-D-glucopyranosyl)-β-D-glucopyranosid]
Schaumbildner (comparison with SLES) [3]: wesentlich bessere Schaumbildner als Natriumlauryethersulfat (SLES)

CCCCCCCCCCCCOCCO[C@@H]1O[C@H](CO[C@H]2O[C@H](CO)[C@H](O)[C@H](O)[C@H]2O)[C@@H](O)[C@H](O)[C@H]1O [Mel-EG-C12, (2'-Dodecyloxyethyl) 6-O-(α-D-galactopyranosyl)-β-D-glucopyranosid]
Schaumbildner (comparison with SLES) [3]: wesentlich bessere Schaumbildner als Natriumlauryethersulfat (SLES)

From patent publication EP1980567A1, “New disaccharide-based tensides and emulsifiers” (Beiersdorf AG, priority 2005, dated 2006)
